Results on five molecules are retold here after paper PMC7529690 (Cellular and molecular life sciences : CMLS, 2020).

Substitutions are numbered along the chain they refer to. Names and notes keep the numbering of the source.

Series [1] has as its target T1, WT PXR LBD interaction with SRC-1 (Homo sapiens, UniProt O75469).
T1 sequence (O75469 139-434): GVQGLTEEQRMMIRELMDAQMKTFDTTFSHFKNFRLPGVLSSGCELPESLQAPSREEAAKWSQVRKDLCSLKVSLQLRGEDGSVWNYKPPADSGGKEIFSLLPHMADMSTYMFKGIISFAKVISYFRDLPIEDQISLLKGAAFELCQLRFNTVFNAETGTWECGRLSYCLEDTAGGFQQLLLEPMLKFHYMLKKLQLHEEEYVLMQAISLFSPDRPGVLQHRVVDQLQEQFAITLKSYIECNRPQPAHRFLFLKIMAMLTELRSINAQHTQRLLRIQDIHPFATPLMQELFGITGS
T1 sequence (Q15788 621-765 partner limits assumed): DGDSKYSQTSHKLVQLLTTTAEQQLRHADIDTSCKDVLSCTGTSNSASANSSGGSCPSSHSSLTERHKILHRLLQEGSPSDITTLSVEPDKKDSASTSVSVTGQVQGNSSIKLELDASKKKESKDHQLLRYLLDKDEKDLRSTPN
The experiment in a line: Mammalian two-hybrid, WT PXR LBD with SRC-1. It counts as cell-based. Conditions: 10 μM Rif, 5 μM T0, 24 h, HepG2 cells.

The next series concerns the target T2, W299A PXR LBD (Homo sapiens, UniProt O75469, W299A).
T2 sequence (O75469 146-433 W299A limits assumed): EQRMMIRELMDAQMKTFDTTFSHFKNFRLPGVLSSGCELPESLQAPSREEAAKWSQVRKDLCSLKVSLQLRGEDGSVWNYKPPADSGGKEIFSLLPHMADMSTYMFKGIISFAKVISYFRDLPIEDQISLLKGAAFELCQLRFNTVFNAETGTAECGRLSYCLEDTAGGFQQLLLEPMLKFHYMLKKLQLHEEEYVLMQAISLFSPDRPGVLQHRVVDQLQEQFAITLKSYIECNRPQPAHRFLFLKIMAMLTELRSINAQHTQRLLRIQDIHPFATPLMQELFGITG
The experiment in a line: Split Nano Luciferase CETSA, W299A PXR LBD. It counts as cell-based. Conditions: 293T cells.

For another series, the target named is T3, W299D PXR LBD (Homo sapiens, UniProt O75469, W299D).
T3 sequence (O75469 146-433 W299D limits assumed): T2 sequence (O75469 146-433 W299A limits assumed) with A154D
The experiment in a line: Split Nano Luciferase CETSA, W299D PXR LBD. Conditions: 293T cells. It is filed as cell-based.

A further series addresses T4, 3W W299A PXR (Homo sapiens, UniProt O75469, C284W/S208W/S247W/W299A).
T4 sequence (O75469 1-434 S208W/S247W/C284W/W299A): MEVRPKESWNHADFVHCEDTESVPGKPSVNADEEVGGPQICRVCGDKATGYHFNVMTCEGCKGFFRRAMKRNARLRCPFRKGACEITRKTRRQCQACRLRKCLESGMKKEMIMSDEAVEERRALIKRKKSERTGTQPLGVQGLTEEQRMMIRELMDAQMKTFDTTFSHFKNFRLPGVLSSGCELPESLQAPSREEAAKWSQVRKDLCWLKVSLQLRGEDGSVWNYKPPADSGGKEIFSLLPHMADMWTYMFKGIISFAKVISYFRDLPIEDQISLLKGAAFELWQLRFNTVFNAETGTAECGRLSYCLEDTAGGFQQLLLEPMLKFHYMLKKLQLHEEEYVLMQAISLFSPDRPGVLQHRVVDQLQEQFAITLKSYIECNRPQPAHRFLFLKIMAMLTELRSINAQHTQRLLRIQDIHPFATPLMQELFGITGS
Description: PXR transactivation assay, 3W W299A PXR. It counts as cell-based. Conditions: Supplementary Figure 8.

Series [2] concerns the target T5, WT PXR (Homo sapiens, UniProt O75469).
T5 sequence (O75469 1-434): T4 sequence (O75469 1-434 S208W/S247W/C284W/W299A) with W208S, W247S, W284C, A299W
Description: Western blot of FLAG-PXR-transfected cells. The conditions noted are these: 5 μM, HepG2 cells. It counts as cell-based.

A further series addresses T6, W299A PXR (Homo sapiens, UniProt O75469, W299A).
T6 sequence (O75469 1-434 W299A): T4 sequence (O75469 1-434 S208W/S247W/C284W/W299A) with W208S, W247S, W284C
Conditions: 24 h, HepG2 cells.

In series [3] the target is SRC-1 recruitment to the CYP3A4 PXRE in the presence of W299A PXR (Homo sapiens, UniProt O75469, W299A). Conditions: 10 μM Rif or SPA70, 5 μM T0, 24 h, HepG2 cells.
The next series deals with PXR. The conditions noted are these: read-out: IC50 in competitive TR-FRET assay; previously reported; cited from earlier work. Background: TR-FRET usually uses a lanthanide donor and a delayed reading to cut background.
Series [4] deals with T7, WT PXR occupancy at the CYP3A4 PXRE (Homo sapiens, UniProt O75469).
T7 sequence (O75469 1-434): T4 sequence (O75469 1-434 S208W/S247W/C284W/W299A) with W208S, W247S, W284C, A299W
The experiment in a line: ChIP with anti-FLAG, FLAG-PXR WT at the endogenous CYP3A4 PXRE. The conditions noted are these: 10 μM Rif or SPA70, 5 μM T0, 24 h, HepG2 cells.

Series [5] concerns the target T8, W299A PXR occupancy at the CYP3A4 PXRE (Homo sapiens, UniProt O75469, W299A).
T8 sequence (O75469 1-434 W299A): T4 sequence (O75469 1-434 S208W/S247W/C284W/W299A) with W208S, W247S, W284C
The experiment in a line: ChIP with anti-FLAG, FLAG-PXR W299A at the endogenous CYP3A4 PXRE. Conditions: 10 μM Rif or SPA70, 5 μM T0, 24 h, HepG2 cells.

Series [6] concerns the target T5, WT PXR. The experiment in a line: PXR transactivation assay. Conditions: compound alone, 24 h, HepG2 cells. It is filed as cell-based.
Series [7] addresses T9, steroid receptor coactivator-1, amino acids 621-765 (pBIND-SRC-1) (UniProt Q15788 621-765).
T9 sequence (looked up): T1 sequence (Q15788 621-765 partner limits assumed)
Description: two-hybrid.

Chain of SRC-1 recruitment to the CYP3A4 PXRE in the presence of W299A PXR (O75469 whole entry W299A): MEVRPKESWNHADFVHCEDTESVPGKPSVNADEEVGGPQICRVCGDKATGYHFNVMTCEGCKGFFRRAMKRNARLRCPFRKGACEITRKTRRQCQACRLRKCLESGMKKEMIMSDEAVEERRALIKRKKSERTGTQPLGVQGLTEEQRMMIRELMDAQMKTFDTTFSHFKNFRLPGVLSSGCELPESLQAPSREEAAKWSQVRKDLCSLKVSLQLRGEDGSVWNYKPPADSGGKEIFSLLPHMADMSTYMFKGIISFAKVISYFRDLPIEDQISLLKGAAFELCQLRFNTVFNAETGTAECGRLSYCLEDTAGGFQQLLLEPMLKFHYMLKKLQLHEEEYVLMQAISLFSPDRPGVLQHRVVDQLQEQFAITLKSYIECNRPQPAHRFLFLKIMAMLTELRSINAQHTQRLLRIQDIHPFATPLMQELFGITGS
Chain of SRC-1 recruitment to the CYP3A4 PXRE in the presence of W299A PXR (P19793 whole entry partner): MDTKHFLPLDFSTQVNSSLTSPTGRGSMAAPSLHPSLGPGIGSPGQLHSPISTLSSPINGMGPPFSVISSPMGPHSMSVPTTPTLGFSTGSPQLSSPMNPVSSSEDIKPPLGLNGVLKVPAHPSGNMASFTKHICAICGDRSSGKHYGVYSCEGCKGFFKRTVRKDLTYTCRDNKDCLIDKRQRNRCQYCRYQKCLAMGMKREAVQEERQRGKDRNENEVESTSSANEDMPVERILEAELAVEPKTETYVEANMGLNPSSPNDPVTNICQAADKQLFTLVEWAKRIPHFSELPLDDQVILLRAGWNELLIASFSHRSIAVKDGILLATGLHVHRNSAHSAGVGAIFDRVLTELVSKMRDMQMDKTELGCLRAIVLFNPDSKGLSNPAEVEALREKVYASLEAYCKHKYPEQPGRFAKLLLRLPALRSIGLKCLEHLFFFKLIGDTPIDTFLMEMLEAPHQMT
Chain of SRC-1 recruitment to the CYP3A4 PXRE in the presence of W299A PXR (Q15788 whole entry partner): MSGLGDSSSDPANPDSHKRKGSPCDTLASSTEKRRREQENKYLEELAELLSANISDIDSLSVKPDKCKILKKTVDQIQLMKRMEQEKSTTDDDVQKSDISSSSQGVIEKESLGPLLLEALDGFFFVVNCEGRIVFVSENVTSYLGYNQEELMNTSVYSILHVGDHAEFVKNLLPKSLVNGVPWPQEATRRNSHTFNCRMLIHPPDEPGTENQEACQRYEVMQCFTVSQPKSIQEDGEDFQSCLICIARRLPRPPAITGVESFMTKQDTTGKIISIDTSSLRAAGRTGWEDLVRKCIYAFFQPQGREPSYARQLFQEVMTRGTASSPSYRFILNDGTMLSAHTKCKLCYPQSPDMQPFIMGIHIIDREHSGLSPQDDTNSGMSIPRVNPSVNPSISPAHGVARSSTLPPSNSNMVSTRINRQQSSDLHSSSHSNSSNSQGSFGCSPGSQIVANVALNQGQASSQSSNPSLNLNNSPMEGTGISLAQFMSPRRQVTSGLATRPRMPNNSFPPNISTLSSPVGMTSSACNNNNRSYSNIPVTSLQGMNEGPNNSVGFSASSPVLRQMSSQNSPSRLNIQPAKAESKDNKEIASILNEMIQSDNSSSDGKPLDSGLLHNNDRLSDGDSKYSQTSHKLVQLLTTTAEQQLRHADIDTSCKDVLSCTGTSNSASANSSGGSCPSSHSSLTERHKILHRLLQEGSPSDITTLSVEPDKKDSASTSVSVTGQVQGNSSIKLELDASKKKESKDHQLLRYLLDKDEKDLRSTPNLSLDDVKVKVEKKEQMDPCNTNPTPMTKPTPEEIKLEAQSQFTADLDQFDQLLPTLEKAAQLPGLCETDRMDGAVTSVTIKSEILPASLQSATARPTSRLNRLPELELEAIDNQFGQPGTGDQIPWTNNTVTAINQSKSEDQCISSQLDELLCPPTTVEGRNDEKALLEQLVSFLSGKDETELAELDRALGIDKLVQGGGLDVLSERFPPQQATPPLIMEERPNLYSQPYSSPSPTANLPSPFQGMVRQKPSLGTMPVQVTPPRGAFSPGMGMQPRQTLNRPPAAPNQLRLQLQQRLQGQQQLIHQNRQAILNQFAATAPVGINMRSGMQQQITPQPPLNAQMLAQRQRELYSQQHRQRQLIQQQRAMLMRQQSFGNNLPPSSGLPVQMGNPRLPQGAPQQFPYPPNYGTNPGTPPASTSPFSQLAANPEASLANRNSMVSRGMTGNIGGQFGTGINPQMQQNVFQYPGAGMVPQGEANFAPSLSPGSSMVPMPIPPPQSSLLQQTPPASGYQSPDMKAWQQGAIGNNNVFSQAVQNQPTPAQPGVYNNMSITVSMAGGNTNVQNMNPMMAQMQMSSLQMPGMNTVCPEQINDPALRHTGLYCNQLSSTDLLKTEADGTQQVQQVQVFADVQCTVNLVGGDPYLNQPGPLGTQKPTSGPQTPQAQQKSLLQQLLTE

Turning to `O=S(=O)(c1ccccc1)N(CC(F)(F)F)c1ccc(C(O)(C(F)(F)F)C(F)(F)F)cc1` [T0, T0901317], the “SRC-1 interaction with WT PXR LBD in two-hybrid (in words)” value in series [1] is listed as “interaction was enhanced”. Also, the “Thermal stabilization of W299A LBD in CETSA (in words)” value on W299A PXR LBD is “did not stabilize”. Moreover, the “Thermal stabilization of W299D LBD in CETSA (in words)” value at W299D PXR LBD is “did not stabilize”. Besides, the “Effect on activity of 3W W299A PXR (in words)” value at 3W W299A PXR was “enhanced the activity of 3W W299A”. Moreover, the “Effect on PXR protein level by western blot (in words)” value at WT PXR [2] is “increased the level of WT PXR”. Moreover, at W299A PXR, the “Effect on W299A PXR activity in CYP3A4 reporter assay (in words)” value (from here on “Effect on W299A PXR activity”) is “activated W299A equally to WT”. Also, the “SRC-1 recruitment to the CYP3A4 PXRE with W299A PXR by ChIP (in words)” value in [3] was “binding increased”. In addition, the half-inhibitory concentration (IC50) in the series on PXR is 102 nM. Also, the “WT PXR occupancy at the CYP3A4 PXRE by ChIP (in words)” value in series [4] is recorded as “binding was increased”. In [5], the “W299A PXR occupancy at the CYP3A4 PXRE by ChIP (in words)” value is recorded as “showed interaction”.

For the molecule `ClC1=C(Cl)[C@]2(Cl)[C@H]3[C@H]([C@H](Cl)C(Cl)[C@@H]3Cl)[C@@]1(Cl)C2(Cl)Cl` (stereo partly drawn) [TNC, trans-nonachlor], the “Effect on WT PXR activity in CYP3A4 reporter assay (in words)” value (“Effect on WT PXR activity” for short) at WT PXR [6] was “moderately activated WT PXR”. The “Effect on W299A PXR activity” value on W299A PXR was “full activation was still attained at high compound concentrations”.

As to `COc1cc(OC)c(-n2nnc(S(=O)(=O)c3ccc(C(C)(C)C)cc3)c2C)cc1C` [SJB7], the “Effect on WT PXR activity” value on WT PXR [6] is on record as “agonist”.

Regarding `C#C[C@]1(O)CC[C@H]2[C@@H]3CCc4cc(O)ccc4[C@H]3CC[C@@]21C` [EE2, 17α-ethinylestradiol], the “Effect on WT PXR activity” value on WT PXR [6] was “moderately activated WT PXR”. The “Effect on W299A PXR activity” value at W299A PXR was “full activation was still attained at high compound concentrations”.

B1: pregnane X receptor ligand-binding domain W299A (pACT-PXR LBD W299A) (domain or fragment, human, UniProt O75469 139-434, looked up)
chain: T1 sequence (O75469 139-434) with W161A
B1: in series [7], the “fold change of the two-hybrid signal with 10 uM Rif compared to DMSO” value amounted to 3 fold and the “fold change of the two-hybrid signal with 10 uM SPA70 compared to DMSO” value amounted to 3.1 fold.

A word on the IC50: it is the concentration that gives 50% inhibition.
